In patent US20100137396A1, “TREATMENT OF ESOPHAGEAL HIGH GRADE DYSPLASIA USING PHOTODYNAMIC THERAPY” (Health Research, Inc, priority 2007, published 2010):

Assays:
[1] = Normal tissue damage after photodynamic therapy (strictures; erythema, edema and necrosis); assay type: in vivo, human; details: after first PDT treatment
Experimental: Nevertheless, PHOTOFRIN™ at an optimized dose level of 2 mg/kg body weight and activation at its preferential light absorption wavelength of 630 nm, and optimized light exposure results in a first treatment complete cure rate of about 32 percent and a two treatment complete cure rate of about 58 percent and a three treatment complete cure rate of about 77 percent. Unfortunately, the treatment also results in significant damage to surrounding normal tissue. Normal tissue damage for PHOTOFRIN™, as measured by percent of strictures at only a single treatment is about 12% and using other reported data concerning PHOTOFRIN™ treatment, is greater than 20 percent based upon toxicity as determined by the presence of erythema, edema and necrosis.
(§1) Using the above parameters, a phase I/II trial using HPPH and a phase III trial using PHOTOFRIN™, the latter approved by the United States Food and Drug Administration, the following results for response of high grade dysplasia were obtained, with CR being defined as complete ablation of high grade dysplasia.

[2] = system: esophageal high grade dysplasia; experiment: Photodynamic therapy trials, response of high grade dysplasia (phase I/II HPPH, phase III PHOTOFRIN); assay type: in vivo, human; details: for Response After First Treatment, CR (complete ablation of high grade dysplasia): after first PDT treatment, patients with high grade dysplasia; for Response After Second Treatment, expected cure rate / Response After Third Treatment, expected cure rate: calculated from first-treatment rate applied to remaining uncured
Experimental: The method of the invention includes the steps of: • injecting HPPH in a physiologically compatible medium into a patient having high grade esophageal dysplasia to provide a dose level of 3 through 5 mg/m^2 of body surface area, preferably 3 through 4 mg/m^2 of body surface area. • waiting for a time period of 24 through 60 hours to permit preferential absorption of the HPPH into the high grade dysplasia tissue, and • exposing the esophageal high grade dysplasia tissue to light at a wavelength of about 670±5 nm at an energy of from about 75 to about 200 Joules/cm, preferably 75 to about 150 Joules/cm.
Injection of the HHPH is preferably accomplished intravenously usually over a time period of 0.75 to 3 hours in a physiologically compatible medium. The time period is functionally dependent upon rate of infusion and dose level desired The concentration is preferably 0.5-through 1.5 mg/ml in medium and the medium is preferably 0.1% polysorbate 80, 2% ethyl alcohol and 5% glucose in normal saline.
Exposure is accomplished using a fiber optic carrying laser light emitted by a laser. The laser may be any suitable laser emitting light at the wavelength and energy desired, e.g. a dye or diode laser. Exposure may be adjusted by length of time of exposure and/or adjustment of light intensity.
as §1

[3] = system: esophageal high grade dysplasia; details: 2 mg/kg body weight, 630 nm, optimized light exposure; cited from earlier work
[4] = treatment concentration of 2 mg/kg; cited from earlier work
[5] = cited from earlier work

| Substance | First Treatment Normal Tissue Damage, strictures [1] [% strictures] | effectiveness against high grade dysplasia and side effects compared with PHOTOFRIN ([2]; 3 to 5 mg/m^2 of body surface area, light at 670±5 nm) | Response After First Treatment, CR (complete ablation of high grade dysplasia) [2] [% CR] | Response After Second Treatment, expected cure rate [2] | Response After Third Treatment, expected cure rate [2] | first treatment complete cure rate [3] | three treatment complete cure rate [3] | two treatment complete cure rate [3] | phototoxicity [4] | Normal tissue damage as measured by percent of strictures ([5]; at only a single treatment) | Normal tissue damage based upon toxicity as determined by the presence of erythema, edema and necrosis ([5]; other reported data concerning PHOTOFRIN treatment) | Response After Second Treatment, cure rate (observed) ([2]; after second PDT treatment) | Response After Third Treatment, cure rate (observed) ([2]; after third PDT treatment) |
| --- | --- | --- | --- | --- | --- | --- | --- | --- | --- | --- | --- | --- | --- |
| 3-(1-hexyloxy) ethyl-derivative of pyropheophorbide-a [HPPH] | 3 | more effective against high grade dysplasia with fewer side effects than PHOTOFRIN™ | 49 | 74% expected cure rate | 87% expected cure rate (based |  |  |  |  |  |  |  |  |
| porfimer sodium [PHOTOFRIN ™] | 12 |  | 32 | 54% expected cure rate (based upon | 71% expected cure rate (based upon | about 32% | about 77% | about 58% | can cause serious phototoxicity | about 12% | greater than 20% | 58% cure rate (observed) | 77% cure rate (observed) |
